# Data taken from patent publication US9206219B2, “17-hydroxy-17-pentafluorethyl-estra-4,9(10)-dien-11-aryl derivatives, methods for the production thereof and the use thereof for treating diseases” (Bayer Intellectual Property GmbH, priority 2009, dated 2015).
# Assays:
# [1] = biological target: T1, human progesterone receptor A (Homo sapiens, UniProt P06401); assay: Progesterone receptor-antagonistic action in stably transfected SK-N-MC cells, MMTV-LUC reporter (PR-A); type: cell-based; conditions: antagonistic potency vs 0.1 nmol/l promegestone, 24 hours
# T1 construct: expressed in transfected cells; host or cells: SK-N-MC human neuroblastoma cells, stably transfected with pRChPR-A-neo and pMMTV-LUC
# T1 sequence (P06401 1-769 isoform P06401-2): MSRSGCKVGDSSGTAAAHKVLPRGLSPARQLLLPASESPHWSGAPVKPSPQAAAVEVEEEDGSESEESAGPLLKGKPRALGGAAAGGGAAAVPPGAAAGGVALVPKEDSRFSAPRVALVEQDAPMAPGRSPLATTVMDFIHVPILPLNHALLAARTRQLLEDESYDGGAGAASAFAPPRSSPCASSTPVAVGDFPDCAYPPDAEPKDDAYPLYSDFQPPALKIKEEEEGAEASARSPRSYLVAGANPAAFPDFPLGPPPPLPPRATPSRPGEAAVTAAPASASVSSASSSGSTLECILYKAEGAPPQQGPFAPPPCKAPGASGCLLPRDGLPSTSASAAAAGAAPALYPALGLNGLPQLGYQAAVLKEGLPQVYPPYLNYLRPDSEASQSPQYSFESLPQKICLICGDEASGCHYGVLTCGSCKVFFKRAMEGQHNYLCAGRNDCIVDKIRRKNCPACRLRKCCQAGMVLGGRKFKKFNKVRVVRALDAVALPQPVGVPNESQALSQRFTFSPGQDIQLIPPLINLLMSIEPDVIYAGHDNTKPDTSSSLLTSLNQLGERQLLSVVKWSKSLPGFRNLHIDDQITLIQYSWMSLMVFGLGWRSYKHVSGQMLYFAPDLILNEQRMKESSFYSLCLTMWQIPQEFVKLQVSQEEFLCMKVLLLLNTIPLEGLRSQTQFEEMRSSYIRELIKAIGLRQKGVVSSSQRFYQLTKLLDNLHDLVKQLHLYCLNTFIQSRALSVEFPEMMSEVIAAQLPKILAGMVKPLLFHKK
# Method: (§1) Progesterone Receptor-Antagonistic Action in Stable Transfectants of Human Neuroblastoma Cells (SK-N-MC Cells) with the Human Progesterone A or Progesterone B Receptor and an MN-LUC Reporter Construct
# (§2) SK-N-MC cells (human neuroblastoma cells) which have been stably transfected with plasmids expressing the human progesterone receptor B (pRChPR-B-neo) or the human progesterone receptor A (pRChPR-A-neo) and a reporter construct (pMMTV-LUC) were incubated for 24 hours either in the absence (negative control) or in the presence of ascending amounts of the particular test compound (0.01 nmol/l, 0.1 nmol/l, 1 nmol/l, 10 nmol/l, 100 nmol/l and […]), in order to determine the agonistic efficacy. As a positive control of the reporter gene induction, the cells were treated with the synthetic gestagen promegestone (0.01 nmol/l, 0.1 nmol/l, 1 nmol/l, 10 nmol/l, 100 nmol/l and […]). To determine the antagonistic activity, the cells were treated with 0.1 nmol/l promegestone and additionally with ascending amounts of the particular test compound (0.01 nmol/l, 0.1 nmol/l, 1 nmol/l, 10 nmol/l, 100 nmol/l and […]). The activity of the reporter gene LUC (LUC=luciferase) was determined in the cell lysates and measured as RLU (relative light units). All measurements are reported as % efficacy and as EC50 and IC50 concentrations.
# [2] = biological target: T2, human progesterone receptor B (Homo sapiens, UniProt P06401); assay: Progesterone receptor-antagonistic action in stably transfected SK-N-MC cells, MMTV-LUC reporter (PR-B); type: cell-based; conditions: antagonistic potency vs 0.1 nmol/l promegestone, 24 hours
# T2 construct: expressed in transfected cells; host or cells: SK-N-MC human neuroblastoma cells, stably transfected with pRChPR-B-neo and pMMTV-LUC
# T2 sequence (P06401 1-933): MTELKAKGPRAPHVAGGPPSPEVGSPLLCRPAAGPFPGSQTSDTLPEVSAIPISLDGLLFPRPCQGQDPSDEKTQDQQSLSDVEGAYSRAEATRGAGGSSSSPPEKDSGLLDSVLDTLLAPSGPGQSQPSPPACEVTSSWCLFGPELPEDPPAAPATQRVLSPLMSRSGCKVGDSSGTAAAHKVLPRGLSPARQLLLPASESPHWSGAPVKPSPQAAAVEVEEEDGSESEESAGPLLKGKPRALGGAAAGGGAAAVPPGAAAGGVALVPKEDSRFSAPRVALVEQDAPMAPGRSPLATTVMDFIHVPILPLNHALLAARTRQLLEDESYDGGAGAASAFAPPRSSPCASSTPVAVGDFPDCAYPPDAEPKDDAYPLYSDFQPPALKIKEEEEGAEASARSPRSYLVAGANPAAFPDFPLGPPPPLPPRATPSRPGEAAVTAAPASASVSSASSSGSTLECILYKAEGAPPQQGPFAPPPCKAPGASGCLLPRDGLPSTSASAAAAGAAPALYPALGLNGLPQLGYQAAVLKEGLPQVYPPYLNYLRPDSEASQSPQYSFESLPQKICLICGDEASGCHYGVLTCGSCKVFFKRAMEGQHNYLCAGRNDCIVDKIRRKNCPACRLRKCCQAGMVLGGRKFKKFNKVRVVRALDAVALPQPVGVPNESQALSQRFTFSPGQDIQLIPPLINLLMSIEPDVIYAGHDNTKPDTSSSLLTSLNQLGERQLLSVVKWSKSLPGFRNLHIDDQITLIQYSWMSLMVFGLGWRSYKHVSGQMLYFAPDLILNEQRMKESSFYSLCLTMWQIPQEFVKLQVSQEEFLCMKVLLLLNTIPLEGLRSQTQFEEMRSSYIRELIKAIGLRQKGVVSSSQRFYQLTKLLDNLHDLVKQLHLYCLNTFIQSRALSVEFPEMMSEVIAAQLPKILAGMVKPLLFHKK
# Method: as §1, §2
structure (smiles),measurement,setting,value
"C=CCNC(=O)OCc1ccc([C@H]2C[C@@]3(C)[C@@H](CC[C@@]3(O)C(F)(F)C(F)(F)F)[C@@H]3CCC4=CC(=O)CCC4=C32)cc1 [Example 43, allylcarbamic acid 4-((8S,11R,13S,14S,17S)-17-hydroxy-13-methyl-3-oxo-17-pentafluoroethyl-2,3,6,7,8,11,12,13,14,15,16,17-dodecahydro-1H-cyclopenta[a]phenanthren-11-yl)benzyl ester]",IC50,[1],0.1 nM
same,IC50,[2],0.1 nM
"CC(C)(C)NC(=O)OCc1ccc([C@H]2C[C@@]3(C)[C@@H](CC[C@@]3(O)C(F)(F)C(F)(F)F)[C@@H]3CCC4=CC(=O)CCC4=C32)cc1 [Example 44, tert-butylcarbamic acid 4-((8S,11R,13S,14S,17S)-17-hydroxy-13-methyl-3-oxo-17-pentafluoroethyl-2,3,6,7,8,11,12,13,14,15,16,17-dodecahydro-1H-cyclopenta[a]phenanthren-11-yl)benzyl ester]",IC50,[1],0.1 nM
same,IC50,[2],0.1 nM
"C[C@]12C[C@H](c3ccc(COC(=O)Nc4ccc(N5CCCCC5)cc4)cc3)C3=C4CCC(=O)C=C4CC[C@H]3[C@@H]1CC[C@@]2(O)C(F)(F)C(F)(F)F [Example 45, (4-piperidin-1-ylphenyl)carbamic acid 4-((8S,11R,13S,14S,17S)-17-hydroxy-13-methyl-3-oxo-17-pentafluoroethyl-2,3,6,7,8,11,12,13,14,15,16,17-dodecahydro-1H-cyclopenta[a]phenanthren-11-yl)benzyl ester]",IC50,[1],0.02 nM
same,IC50,[2],0.09 nM
"C[C@]12C[C@H](c3ccc(COC(=O)Nc4ccccc4)cc3)C3=C4CCC(=O)C=C4CC[C@H]3[C@@H]1CC[C@@]2(O)C(F)(F)C(F)(F)F [Example 46, phenylcarbamic acid 4-((8S,11R,13S,14S,17S)-17-hydroxy-13-methyl-3-oxo-17-pentafluoroethyl-2,3,6,7,8,11,12,13,14,15,16,17-dodecahydro-1H-cyclopenta[a]phenanthren-11-yl)benzyl ester]",IC50,[1],0.01 nM
same,IC50,[2],0.01 nM
"Cc1ccc(NC(=O)OCc2ccc([C@H]3C[C@@]4(C)[C@@H](CC[C@@]4(O)C(F)(F)C(F)(F)F)[C@@H]4CCC5=CC(=O)CCC5=C43)cc2)cc1 [Example 48, (4-methylphenyl)carbamic acid 4-((8S,11R,13S,14S,17S)-17-hydroxy-13-methyl-3-oxo-17-pentafluoroethyl-2,3,6,7,8,11,12,13,14,15,16,17-dodecahydro-1H-cyclopenta[a]phenanthren-11-yl)benzyl ester]",IC50,[1],0.07 nM
same,IC50,[2],0.2 nM
"C[C@]12C[C@H](c3ccc(COC(=O)Nc4ccc(F)cc4)cc3)C3=C4CCC(=O)C=C4CC[C@H]3[C@@H]1CC[C@@]2(O)C(F)(F)C(F)(F)F [Example 49, (4-fluorophenyl)carbamic acid 4-((8S,11R,13S,14S,17S)-17-hydroxy-13-methyl-3-oxo-17-pentafluoroethyl-2,3,6,7,8,11,12,13,14,15,16,17-dodecahydro-1H-cyclopenta[a]phenanthren-11-yl)benzyl ester]",IC50,[1],0.09 nM
same,IC50,[2],0.1 nM
"C[C@]12C[C@H](c3ccc(COC(=O)Nc4ccc(Cl)cc4)cc3)C3=C4CCC(=O)C=C4CC[C@H]3[C@@H]1CC[C@@]2(O)C(F)(F)C(F)(F)F [Example 50, (4-chlorophenyl)carbamic acid 4-((8S,11R,13S,14S,17S)-17-hydroxy-13-methyl-3-oxo-17-pentafluoroethyl-2,3,6,7,8,11,12,13,14,15,16,17-dodecahydro-1H-cyclopenta[a]phenanthren-11-yl)benzyl ester]",IC50,[1],0.1 nM
same,IC50,[2],0.4 nM
"CCOC(=O)c1ccc(NC(=O)OCc2ccc([C@H]3C[C@@]4(C)[C@@H](CC[C@@]4(O)C(F)(F)C(F)(F)F)[C@@H]4CCC5=CC(=O)CCC5=C43)cc2)cc1 [Example 52, 4-[4-((8S,11R,13S,14S,17S)-17-hydroxy-13-methyl-3-oxo-17-pentafluoroethyl-2,3,6,7,8,11,12,13,14,15,16,17-dodecahydro-1H-cyclopenta[a]phenanthren-11-yl)benzyloxycarbonylamino]benzoic acid ethyl ester]",IC50,[1],0.1 nM
same,IC50,[2],0.1 nM
"C[C@]12C[C@H](c3ccc(CNC(=O)c4cccnc4)cc3)C3=C4CCC(=O)C=C4CC[C@H]3[C@@H]1CC[C@@]2(O)C(F)(F)C(F)(F)F [Example 54, N-[4-((8S,11R,13S,14S,17S)-17-hydroxy-13-methyl-3-oxo-17-pentafluoroethyl-2,3,6,7,8,11,12,13,14,15,16,17-dodecahydro-1H-cyclopenta[a]phenanthren-11-yl)benzyl]nicotinamide]",IC50,[1],0.3 nM
same,IC50,[2],0.1 nM
"C[C@]12C[C@H](c3ccc(COC(=O)NCCC(=O)O)cc3)C3=C4CCC(=O)C=C4CC[C@H]3[C@@H]1CC[C@@]2(O)C(F)(F)C(F)(F)F [Example 55, 3-[4-((8S,11R,13S,14S,17S)-17-hydroxy-13-methyl-3-oxo-17-pentafluoroethyl-2,3,6,7,8,11,12,13,14,15,16,17-dodecahydro-1H-cyclopenta[a]phenanthren-11-yl)benzyloxycarbonylamino]propionic acid]",IC50,[1],8 nM
same,IC50,[2],10 nM
"C[C@]12C[C@H](c3ccc(COC(=O)NCc4ccccc4)cc3)C3=C4CCC(=O)C=C4CC[C@H]3[C@@H]1CC[C@@]2(O)C(F)(F)C(F)(F)F [Example 56, benzylcarbamic acid 4-((8S,11R,13S,14S,17S)-17-hydroxy-13-methyl-3-oxo-17-pentafluoroethyl-2,3,6,7,8,11,12,13,14,15,16,17-dodecahydro-1H-cyclopenta[a]phenanthren-11-yl)benzyl ester]",IC50,[1],0.2 nM
same,IC50,[2],0.3 nM
"CCOC(=O)CCNC(=O)OCc1ccc([C@H]2C[C@@]3(C)[C@@H](CC[C@@]3(O)C(F)(F)C(F)(F)F)[C@@H]3CCC4=CC(=O)CCC4=C32)cc1 [Example 57, 3-[4-((8S,11R,13S,14S,17S)-17-hydroxy-13-methyl-3-oxo-17-pentafluoroethyl-2,3,6,7,8,11,12,13,14,15,16,17-dodecahydro-1H-cyclopenta[a]phenanthren-11-yl)benzyloxycarbonylamino]propionic acid ethyl ester]",IC50,[1],0.1 nM
same,IC50,[2],0.1 nM
